How the values were obtained:
[1] = molecular target: recombinant firefly luciferase (Photinus pyralis, UniProt P08659); experiment: biochemical; details: dose response; for Emax: maximum inhibition, read-out: rLuc inhibition dose response: Maximum inhibition (%); for IC50: read-out: rLuc inhibition dose response: IC50
[2] = tested on: P. berghei liver stage (PbLuc); experiment: P. berghei luciferase liver stage (PbLuc) assay in HepG2-A16-CD81 hepatocytes; assay type: cell-based, Plasmodium berghei; details: Plasmodium berghei; for IC50: HepG2-A16-CD81, 12pt dose response, read-out: PbLuc 12pt dose response: IC50; for Emax: HepG2-A16-CD81, 48 h, 12pt dose response, maximum inhibition
[3] = tested on: HepG2-A16-CD81 hepatocytes; experiment: HepG2 cytotoxicity screening (CellTiter-Glo); details: for HepG2 cytotoxicity 12pt dose response: Maximum inhibition (%): 12pt dose response
[4] = HepG2 cytotoxicity screening (CellTiter-Glo); details: human, uninfected HepG2-A16-CD81 (EGFP) hepatocytes

recombinant firefly luciferase, sequence (P08659 whole entry): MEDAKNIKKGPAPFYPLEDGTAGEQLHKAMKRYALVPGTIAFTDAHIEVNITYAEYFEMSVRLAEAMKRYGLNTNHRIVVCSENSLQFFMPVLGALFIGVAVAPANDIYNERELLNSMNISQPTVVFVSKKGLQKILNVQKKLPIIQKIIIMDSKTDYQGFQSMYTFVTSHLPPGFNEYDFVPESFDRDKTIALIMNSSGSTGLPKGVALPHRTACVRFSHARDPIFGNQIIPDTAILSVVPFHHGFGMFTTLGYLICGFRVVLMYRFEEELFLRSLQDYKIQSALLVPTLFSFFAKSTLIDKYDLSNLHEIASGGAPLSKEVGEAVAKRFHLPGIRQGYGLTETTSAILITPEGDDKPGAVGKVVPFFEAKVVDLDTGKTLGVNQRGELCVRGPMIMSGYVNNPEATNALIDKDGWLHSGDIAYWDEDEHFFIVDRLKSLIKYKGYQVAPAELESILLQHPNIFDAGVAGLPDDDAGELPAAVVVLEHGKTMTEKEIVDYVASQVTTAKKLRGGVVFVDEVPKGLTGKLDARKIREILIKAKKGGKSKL

SMILES	Emax [1] [%]	IC50 [1] [µM]	IC50 [2] [µM]	HepG2 Cytotoxicity primary screen (2uM): % Inhibition [3] [%]	HepG2 cytotoxicity 12pt dose response: Maximum inhibition (%) [3] [%]	IC50 [4] [µM]	Emax [2] [%]	inhibition at 2 µM [4] [%]
COc1cccc(CN2CCc3nc(C(=O)NCC(C)C)sc3CC2)c1 [UCSD-0790206]	32	> 25	9.85	-10.23	35.9	> 25	–	–
CC(C)N(CC(N)=O)Cc1csc(COc2ccc(F)cc2)n1 [UCSD-0845986]	5.14	> 25	14.6	6.02	68.7	23.1	97.4	–
Cc1cc(NC(=O)C(C)C)n(-c2nc(C)c(C)c(=O)[nH]2)n1 [UCSD-0786977]	12.4	> 50	0.129	–	36.8	> 25	100	–
CC(=O)N1CCN(Cc2cccc3c2sc2ccccc23)CC(O)C1 (stereo not shown) [UCSD-0830872]	15.6	> 25	5.87	–	10.8	> 25	91	6.03
Cc1[nH]/c(=N\C(=O)c2csc(NCC(C)C)n2)sc1C [UCSD-0795190]	77	9.64	8.85	–	42.7	> 25	84.4	0
Cc1nc(N2CC[C@@H](NC(=O)c3cnccn3)[C@H](O)C2)c2ccsc2n1 [UCSD-0839060]	0.656	> 25	10.4	-14.64	48.7	> 25	90.6	–
COc1cccc(CN2CCN(c3ccc4nncn4n3)C(C)C2)c1 (stereo not shown) [UCSD-0601459]	0.876	> 25	12.6	-7.20	49.9	> 25	92.1	–
CCc1cnc(N)nc1NC(C)c1ccc(C)c(C)c1 (stereo not shown) [UCSD-0831195]	17.1	> 50	0.433	–	56	> 25	89.9	3.76
O=C(Nc1ccc(Cl)cn1)c1nn(C2CCS(=O)(=O)C2)c2c1CCCC2 (stereo not shown) [UCSD-0749819]	2.39	> 25	> 25	–	-0.0195	> 25	60	-5.58
COc1ccc(-c2cc(CNc3ncnc4c3CCNCC4)no2)cc1 [UCSD-0833048]	0.184	> 25	10.2	4.02	49.3	> 25	91.8	–
CC(C)c1cc(=O)[nH]c(-n2nc(C3CC3)cc2N)n1 [UCSD-0786965]	1.26	> 25	1.61	–	73.6	18.9	83	3.79
CC(=O)Nc1ccc(-n2ccc3nc(N4CCCC4)ncc3c2=O)cc1 [UCSD-0795240]	-8.22	> 25	4.11	–	8.78	> 25	100	0
CCc1cccc(N2CCC(NC(=O)c3ccco3)CC2)c1 [UCSD-0587427]	11.1	> 25	11.1	4.14	3.68	> 25	87.3	–
CC(NC(=O)c1cc(-c2cccc(Cl)c2)no1)C(=O)N1CCCC1 (stereo not shown) [UCSD-0819519]	37.2	> 25	11	0.00	0.675	> 25	91.8	–
COCc1noc(-c2ccc(N3CCCCC3CO)nc2)n1 (stereo not shown) [UCSD-0838277]	73.7	6.29	< 0.000141	–	0.196	> 25	82.5	-1.51
COc1cccc(CNc2cc(C)nc(-c3ccncc3)n2)c1OC [UCSD-0704521]	11.7	> 25	4.43	-4.44	80.5	9.86	104	–
COc1cccc(-c2noc(C3CCN(Cc4cn(C)nc4C)C3)n2)c1 (stereo not shown) [UCSD-0839537]	60.2	24	9.44	–	4.79	> 25	86.1	5.3

SMILES	Emax [1] [%]	IC50 [1] [µM]	IC50 [2] [µM]	HepG2 Cytotoxicity primary screen (2uM): % Inhibition [3] [%]	HepG2 cytotoxicity 12pt dose response: Maximum inhibition (%) [3] [%]	IC50 [4] [µM]	Emax [2] [%]	inhibition at 2 µM [4] [%]
COC(=O)c1sc(NCc2ccc(N3CCC(O)CC3)c(F)c2)nc1Cl [UCSD-0616240]	26.9	> 25	12.5	5.85	58.9	17.7	87.4	–
Cc1cc(NC(=O)c2ccc(CN3CC[C@H](O)C3)cc2)ccc1F [UCSD-0834308]	100	< 0.0244	< 0.000282	–	10.3	> 50	104	7.88
CC(Nc1ncnc2c1CCNC2)c1ccc2c(c1)CCCC2 (stereo not shown) [UCSD-0833335]	12.6	> 25	9.75	0.57	57.6	18.4	79.1	–
CC(C)CN1CCCC1c1ccc(C(=O)Nc2cccnc2)s1 (stereo not shown) [UCSD-0828121]	38.6	> 25	9.26	–	5.88	> 25	–	3.83
CC(=O)c1c(F)cccc1N1CCC(Cc2cccnc2)CC1 [UCSD-0819611]	7.02	> 25	4.23	–	73	15.4	116	15.8
N#Cc1c(Cl)nsc1NCc1cccnc1OCC(F)(F)F [UCSD-0808444]	43.9	> 25	14.9	4.29	-0.683	> 25	69.5	–
CCNc1ccnc(CN2CCCC2C(=O)Nc2nccs2)c1 (stereo not shown) [UCSD-0809356]	21.2	> 25	4.46	1.30	2.09	> 25	–	–
Cc1cccc(Nc2cc(C3CCCN(CC(N)=O)C3)ccn2)n1 (stereo not shown) [UCSD-0798772]	–	> 8.33	< 0.000141	–	3.72	> 25	89.4	1.68
Cc1cc(C(=O)N2CCN(c3nc4c(C(C)C)cccc4s3)CC2)on1 [UCSD-0787150]	11.6	> 50	4	–	21.7	> 25	101	–
CC(C)c1n[nH]c(C(=O)Nc2ccccn2)c1Br [UCSD-0842403]	97.1	< 0.0244	< 0.000282	–	31.1	> 50	97.3	24.9
CCS(=O)(=O)N1CCc2ccc(NC(=O)Nc3cccc(C)c3)cc21 [UCSD-0785768]	36.5	> 50	3.66	–	52.3	> 16.6	77.6	27.5
Nc1nc(CCC(=O)N2CCOC(CC3CCCCC3)C2)cs1 (stereo not shown) [UCSD-0838977]	7.71	> 25	15	-10.55	8.43	> 25	93.7	–
COc1ccc(-c2ccc(C3CNCCO3)nc2)cc1 (stereo not shown) [UCSD-0802458]	89.6	0.0276	< 0.000141	–	-13.4	> 50	94	23.7
COC1CCN(c2ccc(NC(=O)C3CC3)cc2C(F)(F)F)CC1 [UCSD-0582177]	16.4	> 25	14.7	12.40	23	> 25	87.5	–
Cc1nc(NC(=O)c2c(-n3cnnn3)sc(C)c2C)sc1C [UCSD-0786548]	1.63	> 25	0.0144	–	8.84	> 25	–	4.63
Cc1cnc(NC(=O)c2csc(NC3CCCC3)n2)s1 [UCSD-0752486]	65.8	24.8	8.33	–	48.7	> 25	93.6	–

From paper PMC7155171, “Probing the Open Global Health Chemical Diversity Library for Multistage-Active Starting Points for Next-Generation Antimalarials” (ACS Infectious Diseases, 2020)
